Here are results for one compound from patent US10876076B2, “Detergents and cleaning agents having improved performance” (Henkel AG & Co. KGaA, priority 2016, dated 2020).

Usually solubility stands for how much of the substance goes into solution per volume. A low value points to a poorly soluble substance.

Some results are limits rather than exact numbers.

A short description of the series: Water solubility. The series is classed as physicochemical. The conditions noted are these: deionized water, pH 7, room temperature. The method, then:
[drawing 6] 2,3-dihydroxyterephthalic acid dimethyl ester (12.89 g, 57 mmol) from step a) was suspended in N,N-dimethylethylenediamine (72.8 g, 809 mmol) and the reaction mixture was stirred for 24 hours at 100° C. After adding 100 ml of dimethylformamide (DMF), the excess of N,N-dimethylethylenediamine, together with the DMF, was removed by distillation. The solid obtained was washed 2 times using 300 ml of ethyl acetate, subsequently recrystallized from methanol/ethyl acetate (1:2.5) and dried in a vacuum. 9.6 g of 2,3-dihydroxy-N,N′-bis(2-(dimethylamino)ethyl)terephthaldiamide was obtained as a beige solid. The water solubility thereof (deionized water, pH 7, room temperature) was over 70 g/l.

Turning to `CN(C)CCNC(=O)c1ccc(C(=O)NCCN(C)C)c(O)c1O` [S1, 2,3-dihydroxy-N,N′-bis(2-(dimethylamino)ethyl) terephthaldiamide], the solubility is greater than 70 mg/mL.
